Residue numbers refer to the chain shown, from its start.
Experiments:
Experiment in all cases: DHE acyltransferase assay with peptide-based HDLs
Type in all cases: biochemical
LCAT R244A = molecular target: T1, LCAT R244A (Homo sapiens, UniProt P04180, R268A)
T1 construct: hydrolysis of 4-methylumbelliferyl palmitate (MUP) by full-length LCAT; made in house; host or cells: HEK293F (transient transfection, secreted)
T1 sequence (P04180 25-440 R268A): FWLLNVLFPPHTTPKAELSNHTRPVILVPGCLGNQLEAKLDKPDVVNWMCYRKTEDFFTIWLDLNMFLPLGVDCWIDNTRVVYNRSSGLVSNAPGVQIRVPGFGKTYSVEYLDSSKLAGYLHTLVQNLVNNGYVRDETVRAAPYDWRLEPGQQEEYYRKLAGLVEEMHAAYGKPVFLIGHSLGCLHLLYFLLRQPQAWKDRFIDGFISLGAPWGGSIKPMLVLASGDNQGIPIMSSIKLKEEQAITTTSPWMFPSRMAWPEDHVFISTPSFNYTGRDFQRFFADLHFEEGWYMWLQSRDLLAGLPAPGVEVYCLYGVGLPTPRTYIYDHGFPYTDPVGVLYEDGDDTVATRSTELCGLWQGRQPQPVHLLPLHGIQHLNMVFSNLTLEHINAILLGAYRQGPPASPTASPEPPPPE
Protocol: (§1) Peptide-based HDLs were used in this assay as there is no difference between peptide HDLs and ApoA-I HDLs in both HDL binding and acyltransferase assays ([Manthei et al., 2017]). The peptide HDLs were made using the ESP24218 peptide with the sequence […] ([Dassuex et al., 1999]; [Li et al., 2015]) with a DPPC:POPC:DHE ratio of 47:47:6 as previously described ([Manthei et al., 2017]). The assay was performed in 384-well low volume black microplates (Corning 4514) with a total assay volume of 16 μL. In each reaction, LCAT was diluted in assay buffer to 15 μg mL^−1 in the presence of either 1% DMSO or 10 μM 2 with 1% DMSO. Compound 2 was used in this assay because it has lower background fluorescence than 1. The DHE HDLs were diluted in 1X PBS with 1 mM EDTA and 5 mM β-mercaptoethanol. 8 μL of the HDLs were added to the plate, and the reactions were initiated with 8 μL of LCAT, so that LCAT was assayed at 7.5 μg mL^−1 with and without 5 μM compound with a range of DHE concentrations from 0 to 50 μM. The reactions were stopped after 25 min at 37 °C with the addition of 4 μL of stop solution (1X PBS with 1 mM EDTA, 5 U mL^−1 cholesterol oxidase (COx), and 7% Triton X100). Following the addition of stop solution, the plates were incubated for another 60 min at 37 °C to allow for the COx to react. After the plates were re-equilibrated at room temperature, fluorescence was determined on a SpectraMax plate reader with excitation at 325 nm and emission at 425 nm, with a 420 nm cutoff. Reactions without LCAT were used for background subtraction, and reactions without LCAT and stop solution lacking COx were used to generate a standard curve for DHE. Reactions were performed in triplicate with three independent experiments per LCAT variant. Data were processed via background subtraction to remove excess fluorescence that results from the higher concentrations of DHE. […] Outliers were removed using automatic outlier elimination within Prism. For statistical analysis, the Vmax for each variant was compared to WT using a one-way analysis of variance followed by Tukey’s multiple comparisons post-test in GraphPad Prism.
(§2) To determine EC50 values, compound 2 was titrated from 0.004 to 10 μM, and the DHE concentration was set at 50 μM. LCAT was diluted in assay buffer and compound 2 dilutions were made with assay buffer containing 5.3% DMSO. 1.5 μL compound was added, then 6.5 μL LCAT, followed by 8 μL DHE. Dilutions were adjusted so that LCAT was assayed at 7.5 μg mL^−1, as above. All values were background subtracted to buffer with the same concentration of compound 2. A standard curve was included in one experiment with DHE from 0 to 50 μM in order to adjust the final fluorescence values to a rate by dividing by the slope of the line and time (25 min), as above. Outliers were removed using automatic outlier elimination within Prism. For statistical analysis, the EC50 for each variant was compared to WT using a one-way analysis of variance followed by Tukey’s multiple comparisons post-test in GraphPad Prism.

LCAT Y51S/G71I = molecular target: T2, LCAT Y51S/G71I (Homo sapiens, UniProt P04180, G95I/Y75S)
T2 construct: hydrolysis of 4-methylumbelliferyl palmitate (MUP) by full-length LCAT; made in house; host or cells: HEK293F (transient transfection, secreted)
T2 sequence (P04180 25-440 Y75S/G95I): T1 sequence (P04180 25-440 R268A) with Y51S, G71I, A244R
Protocol: as §1, §2

LCAT R244H = molecular target: T3, LCAT R244H (Homo sapiens, UniProt P04180, R268H)
T3 construct: hydrolysis of 4-methylumbelliferyl palmitate (MUP) by full-length LCAT; made in house; host or cells: HEK293F (transient transfection, secreted)
T3 sequence (P04180 25-440 R268H): T1 sequence (P04180 25-440 R268A) with A244H
Protocol: as §1, §2

[1] = compound 2 titrated from 0.004 to 10 μM, DHE 50 μM
[2] = highest concentration tested, 10 μM compound 2

## O=C1CC(O)(C(F)(F)F)c2c(C3CCN(c4cnc(C(F)(F)F)cn4)CC3)n[nH]c2N1 (stereo not drawn) [compound 2, 4-Hydroxy-4-(trifluoromethyl)−3-(1-(5-(trifluoromethyl)pyrazin-2-yl)piperidin-4-yl)−4,5-dihydro-1H-pyrazolo[3,4-b]pyridin-6(7H)-one]
LCAT R244A; [1]
  EC50: 0.76 ± 0.2 µM
LCAT R244A; [2]
  acyltransferase rate: 18 µM/h
LCAT Y51S/G71I; Y51S/G71I variant
  acyltransferase activity in the presence of compound 2: failed to increase activity
LCAT Y51S/G71I; Y51S/G71I, compound 2 titrated from 0.004 to 10 μM, DHE 50 μM
  DHE assay EC50: no effect
LCAT R244H; [1]
  EC50: 4.6 ± 2 µM
LCAT R244H; [2]
  acyltransferase rate: 26 µM/h

— PMC6277198, “Molecular basis for activation of lecithin:cholesterol acyltransferase by a compound that increases HDL cholesterol” (eLife, 2018)
